Test results: patent US20040005294A1, “IGFBP-3 in the diagnosis and treatment of cancer” (priority 2002, published 2004)

How the values were obtained:
[1] = system: premalignant and malignant HBE cell lines; test: MTT proliferation assay, premalignant and malignant HBE cell lines; format: cell-based; conditions: Homo sapiens, range tested 10^−9 M to 10^−7 M, read-out: IC50 (growth inhibition)
Procedure: To measure the effects of deguelin on cell proliferation, NHBE, 1799, 1198, 1170-1, and HB56B cells were plated at concentrations of 2×10^3 to 4×10^3 cells/well in 96-well plates. The next day, cells were treated with either 0.1% DMSO as a diluent control or various concentrations of deguelin (final DMSO concentration=0.1%). At the end of the assay time period, cell proliferation was measured by the 3-(4,5-dimethylthiazol-2-yl)-2,5-diphenyltetrazolium bromide (MTT) assay as described (Lee et al., 2002). Six replicate wells were used for each analysis, and data from replicate wells are presented as means with 95% confidence intervals (CIs). For some experiments, the drug concentration required to inhibit cell growth by 50% (IC50) was determined by interpolation from dose-response curves. At least three independent experiments were performed.

[2] = system: 1799, 1198 and 1170-1 cells; test: Cell cycle analysis by flow cytometry, HBE cell lines; format: cell-based, human; conditions: 10^−8 M or 10^−7 M, 3 days
Procedure: NHBE and 1799 cells were plated at a concentration of 2×10^5 cells/well in six-well plates. The next day, cells were treated with deguelin (various concentrations) or DMSO (0.1%) for 3 days to achieve maximal antiproliferative effects (determined from growth curves). All cells (nonadherent and adherent) were harvested, fixed with 1% paraformaldehyde and 70% ethanol, stained with 50 μg/mL propidium iodide, and subjected to flow cytometric analysis to determine the percentage of cells in specific phases of the cell cycle (G1, S, and G2/M) as described (Sun et al., 1997). Flow cytometric analysis was performed using a Coulter EPICS Profile II flow cytometer (Coulter Corp., Miami, Fla.) equipped with a 488-nm argon laser. Approximately 10 000 events (cells) were evaluated for each sample. Two independent experiments were performed and one is presented.

1799 cells [3] = test: Apoptosis by APO-BrdU (modified TUNEL) flow cytometry, 1799 cells; format: cell-based, human
Procedure: NHBE, premalignant (1799 and 1198), and malignant (1170-1) HBE (2×10^6) cells were exposed to various doses of deguelin or to DMSO (0.1%) for 3 days. Apoptosis was assessed by morphology, by a flow cytometry-based, modified terminal deoxynucleotidyl transferase dUTP nick end labeling (TUNEL) assay, and by the detection of fragmented DNA. For morphology, live cells were observed by light microscopy using a ×100 objective. For TUNEL analysis, both adherent and nonadherent cells were harvested and pooled, fixed with 1% paraformaldehyde and 70% ethanol, and processed using the APO-BrdU staining kit (Phoenix Flow Systems, San Diego, Calif.), a modified TUNEL assay, as described (Lee et al., 2002). Cells treated with DMSO were used to gate the control nonapoptotic populations and as a reference for cells treated with deguelin. An internal control (HL-60 cells treated with camptothecin to induce apoptosis) provided in the apoptosis detection kit was also used to ensure that the TUNEL reaction was occurring during the staining procedure. For the detection of fragmented nucleosomal DNA, cells were processed using the TACS apoptotic DNA laddering kit (Trevigen Inc., Gaithersburg, Md.), according to the manufacturer's recommended protocol.
To determine whether deguelin-induced antiproliferative effects on premalignant HBE cells were mediated through the inhibition of the PI3K/Akt pathway, 2×10^5 1799 cells/well or 1×10 ^6 squamous HBE cells/well in six-well plates were infected with 5×10 ^3 particles/cell of a control virus (Ad5CMV) or with 1×10^3 or 5×10^3 particles/cell of Ad5CMV-MyrAkt-HA, an adenoviral vector that expresses a constitutively active Akt. (MyrAkt) in KSFM. After 1 day of infection, cells were treated with 10^−7M or 10^−6M deguelin, 2×10^−6 M or 4×10^−6M N-(4-hydroxyphenyl)retinamide (4-HPR), or 0.1% DMSO as a control and then incubated for 1 or 2 days. Apoptosis was analyzed using the APO-BrdU staining kit for TUNEL, Western blot analyses for caspase-3, and the cleavage of PARP.

1799 cells [4] = test: Immunoblot of apoptosis-related enzymes and Bcl family members; format: cell-based, human; conditions: 3 days
Procedure: Whole cell lysates from 1×10^6 cells were prepared in lysis buffer as described (Lonardo et al., 2002). Equivalent amounts of protein were resolved by sodium dodecyl sulfate (SDS)-polyacrylamide gels (7.5%-12%) and transferred to a nitrocellulose membrane. After the membrane was blocked in Tris-buffered saline (TBS) containing 0.05% Tween 20 (TBST) and 5% (w/v) nonfat powdered milk, the membrane was incubated with primary antibody at the appropriate dilution in TBS-5% nonfat milk at 4° C. for 16 h. The membrane was then washed multiple times with TBST and incubated with the appropriate horseradish peroxidaseconjugated secondary antibody for 1 h at room temperature. The protein-antibody complexes were detected by enhanced chemilurminescence (ECL kit; Amersham, Arlington Heights, Ill.), according to the manufacturer's recommended protocol.
The following antibodies and working dilutions were used for the Western blots: rabbit polyclonal antibodies against human phosphorylated Akt (pAkt) (Ser473) (1:1000), Akt (1:1000), phosphorylated glycogen synthase kinase 3β (pGSK-3β) (Ser9) (1:1000), and mouse monoclonal antibody against human antiphosphorylated MAPK (anti-pMAPK) (Thr202/Tyr204) (1:500) (Cell Signaling Technology, Beverly, Mass.); rabbit polyclonal anti-GSK-3α/β (1:1000) (BD Transduction Laboratories, Lexington, Ky.); rabbit polyclonal anti-Bax and anti-caspase-3 antibodies (1:2000) (Pharmingen, San Diego, Calif.); rabbit polyclonal anti-Bcl-2 (1:1000) and rabbit polyclonal antipoly(ADP-ribose) polymerase (PARP) antibody (1:1000) (VIC5; Roche Molecular Biochemicals, Indianapolis, Ind.); rabbit polyclonal anti-hemagglutinin (HA) antibody (1:1000), goat polyclonal antibodies against extracellular related kinase 1(Erk-1; 1:1000), Erk-2 (1:1000), and β-actin (1:4000) (Santa Cruz Biotechnology, Inc., Santa Cruz, Calif.); rabbit anti-mouse immunoglobulin G (IgG)-horseradish peroxidase conjugate (1:2000) (DAKO, Carpinteria, Calif.); and donkey anti-rabbit IgG-horseradish peroxidase conjugate (1:2000) and rabbit anti-goat IgG-horseradish peroxidase conjugate (1:2000) (Amersham Pharmacia Biotech, Arlington Heights, Ill.).

`COc1cc2c(cc1OC)[C@@H]1C(=O)c3ccc4c(c3O[C@@H]1CO2)C=CC(C)(C)O4` [deguelin, Deguelin] was tested, and the IC50 [1] was less than 10 nM, the cell cycle distribution [2] was “accumulated in the G2/M phase” and the cells undergoing apoptosis (1799 cells [3]; 10^−7 M, 2 days, 1799 cells infected with Ad5CMV-MyrAkt-HA) was “less than 10%”. The cells undergoing apoptosis (1799 cells [3]; 10^−7 M, 2 days, 1799 cells uninfected or infected with control adenovirus) was “approximately 40%”, the cells undergoing apoptosis (1799 cells [3]; 10^−7 M, 3 days) was 92.2% and the cells undergoing apoptosis (1799 cells [3]; 10^−8 M, 3 days) was 68.5%. For the same compound, the cells undergoing apoptosis (1799 cells [3]; 10^−9 M, 3 days) was “approximately 3.3%”, the caspase-3 activation (1799 cells [4]; 10^−8 M or 10^−7 M) was “activated caspase-3” and the Bax level (1799 cells [4]) was “dose dependent increase in the level of Bax”. The Bcl-2 expression (1799 cells [4]) was “slight decrease in Bcl-2 expression” and the Bcl-xL level (1799 cells [4]) was “did not affect the level of Bcl-xL”.
